{"source": "patent US20250339399A1", "about": "“SUPRAMOLECULAR SELF-ASSEMBLY SYSTEM” (Beijing Creatron Institute of Pharmaceutical Research Co., …, priority 2022, published 2025)", "key": {"[1]": {"assay": "Guest molecule concentration after incubation in initial medium without polymer (Comparative Example 1)", "format": "physicochemical", "conditions": "37° C.", "how_it_was_run": "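Dissolved guest content measured by HPLC of centrifuged supernatants (37° C., 13000 rpm, 5 min) sampled at 0.5 h, 3 h and 6 h. Incubation was polymer-free at 37° C.±0.5° C. in buffers of pH 2.0-7.4; nominal loading was set by maximum clinical dose.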"}, "[2]": {"assay": "Binary supramolecular self-assembly systems of polymer and target: guest concentration over incubation time (Comparative Example 2)", "format": "physicochemical", "procedure": "Experiments were conducted according to the steps in Comparative Example 1, and quantitative analysis was carried out using the analytical method for each target to investigate the regulation ability […] stacking."}, "[3]": {"assay": "Binary (carrier), ternary and quaternary supramolecular self-assembly systems of polymer, carrier building block and target: guest concentration over incubation time (Examples 1-56)", "format": "physicochemical", "conditions": "for Concentration of guest molecule in solution / Times that of the initial medium: 6 h", "how_it_was_run": "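Targets were incubated at 37 °C in pH 2.0–7.4 buffers with 0.5% polymer alone or with carrier building blocks, after 0.5 h sonication for ternary systems, and shaken at 200 rpm. Samples at 0.5–6 h were centrifuged and diluted ≥10-fold, and dissolved target was quantified by HPLC; surfactant was added if needed.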"}, "[4]": {"conditions": "cited from earlier work"}, "[5]": {"conditions": "binary system with 0.5% polymer 101, incubation 0.5 h"}, "[6]": {"conditions": "binary system with 0.5% polymer 101, incubation 3 h"}, "[7]": {"conditions": "binary system with 0.5% polymer 101, incubation 6 h"}, "[8]": {"conditions": "binary system with 0.5% polymer 102, incubation 0.5 h"}, "[9]": {"conditions": "binary system with 0.5% polymer 102, incubation 3 h"}, "[10]": {"conditions": "binary system with 0.5% polymer 102, incubation 6 h"}, "[11]": {"conditions": "binary system with 0.5% polymer 103, incubation 0.5 h"}, "[12]": {"conditions": "binary system with 0.5% polymer 103, incubation 3 h"}, "[13]": {"conditions": "binary system with 0.5% polymer 103, incubation 6 h"}, "[14]": {"conditions": "binary system with 0.5% polymer 106, incubation 0.5 h"}, "[15]": {"conditions": "binary system with 0.5% polymer 106, incubation 3 h"}, "[16]": {"conditions": "binary system with 0.5% polymer 106, incubation 6 h"}, "[17]": {"conditions": "binary system with 0.5% polymer 107, incubation 0.5 h"}, "[18]": {"conditions": "binary system with 0.5% polymer 107, incubation 3 h"}, "[19]": {"conditions": "binary system with 0.5% polymer 107, incubation 6 h"}, "[20]": {"conditions": "0.25% 205 (102H+104) + 0.25% 301"}, "[21]": {"conditions": "quaternary: 204 (102H+103E5) + 0.5% 301"}, "[22]": {"conditions": "ternary: 102H (0.25% where stated) + 301, carrier % not stated"}, "[23]": {"conditions": "ternary: 102H (0.25% where stated) + 302, carrier % not stated"}, "[24]": {"conditions": "ternary: 102H + 313 at further increased mass percentage"}, "[25]": {"conditions": "ternary: 102H + 318 at further increased mass percentage"}}, "note": "Several values for one entry are separate records, joined by “and”; a condition that tells them apart may be missing. Identical values can stand only once."}
{"compound": "C=CC(=O)N1CCC[C@@H](n2nc(-c3ccc(Oc4ccccc4)cc3)c3c(N)ncnc32)C1", "note": "[Ibrutinib]", "values": [{"measurement": "Concentration of guest molecule measured after different incubated time", "setting": "[1]; 0.5 h, 0.05% Tween 20 in pH 6.8 phosphate buffer", "value": 16.5, "unit": "µg/mL"}, {"measurement": "Concentration of guest molecule measured after different incubated time", "setting": "[1]; 3 h, 0.05% Tween 20 in pH 6.8 phosphate buffer", "value": 17.9, "unit": "µg/mL"}, {"measurement": "Concentration of guest molecule measured after different incubated time", "setting": "[1]; 6 h, 0.05% Tween 20 in pH 6.8 phosphate buffer", "value": 18.4, "unit": "µg/mL"}, {"measurement": "Concentration of the target in the solution measured after different incubation time", "setting": "[2]; [5]", "value": 48.5, "unit": "µg/mL"}, {"measurement": "Concentration of the target in the solution measured after different incubation time", "setting": "[2]; [6]", "value": 93.5, "unit": "µg/mL"}, {"measurement": "Concentration of the target in the solution measured after different incubation time", "setting": "[2]; [7]", "value": 95.3, "unit": "µg/mL"}, {"measurement": "Concentration of the target in the solution measured after different incubation time", "setting": "[2]; [8]", "value": 168.1, "unit": "µg/mL"}, {"measurement": "Concentration of the target in the solution measured after different incubation time", "setting": "[2]; [9]", "value": 176.4, "unit": "µg/mL"}, {"measurement": "Concentration of the target in the solution measured after different incubation time", "setting": "[2]; [10]", "value": 154.5, "unit": "µg/mL"}, {"measurement": "Concentration of the target in the solution measured after different incubation time", "setting": "[2]; [11]", "value": 44.1, "unit": "µg/mL"}, {"measurement": "Concentration of the target in the solution measured after different incubation time", "setting": "[2]; [12]", "value": 17.8, "unit": "µg/mL"}, {"measurement": "Concentration of the target in the solution measured after different incubation time", "setting": "[2]; [13]", "value": 17.1, "unit": "µg/mL"}, {"measurement": "Concentration of the target in the solution measured after different incubation time", "setting": "[2]; binary system with 0.5% polymer 104, incubation 0.5 h", "value": 13.4, "unit": "µg/mL"}, {"measurement": "Concentration of the target in the solution measured after different incubation time", "setting": "[2]; binary system with 0.5% polymer 104, incubation 3 h", "value": 13.7, "unit": "µg/mL"}, {"measurement": "Concentration of the target in the solution measured after different incubation time", "setting": "[2]; binary system with 0.5% polymer 104, incubation 6 h", "value": 14.3, "unit": "µg/mL"}, {"measurement": "Concentration of the target in the solution measured after different incubation time", "setting": "[2]; [14]", "value": 33.8, "unit": "µg/mL"}, {"measurement": "Concentration of the target in the solution measured after different incubation time", "setting": "[2]; [15]", "value": 65.9, "unit": "µg/mL"}, {"measurement": "Concentration of the target in the solution measured after different incubation time", "setting": "[2]; [16]", "value": 68.4, "unit": "µg/mL"}, {"measurement": "Concentration of the target in the solution measured after different incubation time", "setting": "[2]; [17]", "value": 47.9, "unit": "µg/mL"}, {"measurement": "Concentration of the target in the solution measured after different incubation time", "setting": "[2]; [18]", "value": 53.1, "unit": "µg/mL"}, {"measurement": "Concentration of the target in the solution measured after different incubation time", "setting": "[2]; [19]", "value": 56.0, "unit": "µg/mL"}, {"measurement": "Concentration of guest molecule in solution", "setting": "[2]; binary: 0.25% 102H, 6 h", "value": 260.2, "unit": "µg/mL"}, {"measurement": "Times that of the initial medium", "setting": "[2]; binary: 0.25% 102H, 6 h", "value": "14 times and 14.5 times"}, {"measurement": "Concentration of guest molecule in solution", "setting": "[3]; [20]", "value": 157.4, "unit": "µg/mL"}, {"measurement": "Times that of the initial medium", "setting": "[3]; [20]", "value": 8.6, "unit": "times"}, {"measurement": "Concentration of guest molecule in solution", "setting": "[3]; binary, no polymer: 0.5% 301", "value": 156.9, "unit": "µg/mL"}, {"measurement": "Times that of the initial medium", "setting": "[3]; binary, no polymer: 0.5% 301", "value": 8.5, "unit": "times"}, {"measurement": "Concentration of guest molecule in solution", "setting": "[3]; [21]", "value": 206.4, "unit": "µg/mL"}, {"measurement": "Times that of the initial medium", "setting": "[3]; [21]", "value": 11, "unit": "times"}, {"measurement": "Encapsulation rate for the guest molecule", "setting": "[3]; ternary: 0.25% 102H + 0.5% 319", "value": "~100", "unit": "%"}, {"measurement": "Concentration of guest molecule in solution", "setting": "[3]; [22]", "value": 446.0, "unit": "µg/mL"}, {"measurement": "Times that of the initial medium", "setting": "[3]; [22]", "value": "about 25 times"}, {"measurement": "Concentration of guest molecule in solution", "setting": "[3]; [23]", "value": 410.7, "unit": "µg/mL"}, {"measurement": "Times that of the initial medium", "setting": "[3]; [23]", "value": 22, "unit": "times"}, {"measurement": "Concentration of guest molecule in solution", "setting": "[3]; ternary: 102H + 313, carrier % not given", "value": 436.6, "unit": "µg/mL"}, {"measurement": "Encapsulation rate for the guest molecule", "setting": "[3]; [24]", "value": "~100", "unit": "%"}, {"measurement": "Concentration of guest molecule in solution", "setting": "[3]; [24]", "value": 792.1, "unit": "µg/mL"}, {"measurement": "Times that of the initial medium", "setting": "[3]; [24]", "value": 43, "unit": "times"}, {"measurement": "Concentration of guest molecule in solution", "setting": "[3]; ternary: 102H + 318, carrier % not stated", "value": 429.9, "unit": "µg/mL"}, {"measurement": "Concentration of guest molecule in solution", "setting": "[3]; [25]", "value": 774.7, "unit": "µg/mL"}, {"measurement": "Times that of the initial medium", "setting": "[3]; [25]", "value": 42, "unit": "times"}, {"measurement": "LogD7.4 or Log P", "setting": "[4]", "value": 3.63}]}
{"compound": "C=CC[C@@H]1/C=C(\\C)C[C@H](C)C[C@H](OC)[C@H]2O[C@@](O)(C(=O)C(=O)N3CCCC[C@H]3C(=O)O[C@H](/C(C)=C/[C@@H]3CC[C@@H](O)[C@H](OC)C3)[C@H](C)[C@@H](O)CC1=O)[C@H](C)C[C@@H]2OC", "note": "[Tacrolimus]", "values": [{"measurement": "Concentration of guest molecule measured after different incubated time", "setting": "[1]; 0.5 h, pH 4.5 acetate buffer", "value": 77.4, "unit": "µg/mL"}, {"measurement": "Concentration of guest molecule measured after different incubated time", "setting": "[1]; 3 h, pH 4.5 acetate buffer", "value": 8.2, "unit": "µg/mL"}, {"measurement": "Concentration of guest molecule measured after different incubated time", "setting": "[1]; 6 h, pH 4.5 acetate buffer", "value": 17.3, "unit": "µg/mL"}, {"measurement": "Concentration of the target in the solution measured after different incubation time", "setting": "[2]; [5]", "value": 224.0, "unit": "µg/mL"}, {"measurement": "Concentration of the target in the solution measured after different incubation time", "setting": "[2]; [6]", "value": 88.8, "unit": "µg/mL"}, {"measurement": "Concentration of the target in the solution measured after different incubation time", "setting": "[2]; [7]", "value": 161.3, "unit": "µg/mL"}, {"measurement": "Concentration of the target in the solution measured after different incubation time", "setting": "[2]; [8]", "value": 63.4, "unit": "µg/mL"}, {"measurement": "Concentration of the target in the solution measured after different incubation time", "setting": "[2]; [9]", "value": 60.3, "unit": "µg/mL"}, {"measurement": "Concentration of the target in the solution measured after different incubation time", "setting": "[2]; [10]", "value": 55.7, "unit": "µg/mL"}, {"measurement": "Concentration of the target in the solution measured after different incubation time", "setting": "[2]; [11]", "value": 46.8, "unit": "µg/mL"}, {"measurement": "Concentration of the target in the solution measured after different incubation time", "setting": "[2]; [12]", "value": 58.7, "unit": "µg/mL"}, {"measurement": "Concentration of the target in the solution measured after different incubation time", "setting": "[2]; [13]", "value": 6.0, "unit": "µg/mL"}, {"measurement": "Concentration of the target in the solution measured after different incubation time", "setting": "[2]; [14]", "value": 78.6, "unit": "µg/mL"}, {"measurement": "Concentration of the target in the solution measured after different incubation time", "setting": "[2]; [15]", "value": 65.2, "unit": "µg/mL"}, {"measurement": "Concentration of the target in the solution measured after different incubation time", "setting": "[2]; [16]", "value": 5.2, "unit": "µg/mL"}, {"measurement": "Concentration of the target in the solution measured after different incubation time", "setting": "[2]; [17]", "value": 68.7, "unit": "µg/mL"}, {"measurement": "Concentration of the target in the solution measured after different incubation time", "setting": "[2]; [18]", "value": 62.8, "unit": "µg/mL"}, {"measurement": "Concentration of the target in the solution measured after different incubation time", "setting": "[2]; [19]", "value": 13.2, "unit": "µg/mL"}, {"measurement": "Concentration of guest molecule in solution", "setting": "[3]; ternary: 0.25% 102H + 307", "value": 161.3, "unit": "µg/mL"}, {"measurement": "Concentration of guest molecule in solution", "setting": "[3]; ternary: 0.25% 102H + 308", "value": 219.1, "unit": "µg/mL"}, {"measurement": "Concentration of guest molecule in solution", "setting": "[3]; ternary: 0.25% 102H + 320", "value": 328.9, "unit": "µg/mL"}, {"measurement": "Concentration of guest molecule in solution", "setting": "[3]; ternary: 0.25% 102H + 321", "value": 337.2, "unit": "µg/mL"}, {"measurement": "LogP", "setting": "[4]", "value": "LogP 5.59"}]}
